According to a compilation of properties of binary mixtures (doi:10.1021/je060123k):

Assay: xn = mol fraction of the nth substance listed
Details: 101 kPa

CCCO + CCCCCCCCn1cc[n+](C)c1.[Cl-]
x1 = 1
Details	speed of sound [m/s]	viscosity [mPa·s]
298.15 K	1205	1.951
313.15 K	1155	1.383
328.15 K	1105	1.007

CCO + CCCCCCCCn1cc[n+](C)c1.[Cl-]
x1 = 1
Details	speed of sound [m/s]	viscosity [mPa·s]
298.15 K	1143	1.085
313.15 K	1093	0.826
328.15 K	1043	0.641

CO + CCCCCCCCn1cc[n+](C)c1.[Cl-]
x1 = 1
Details	speed of sound [m/s]	viscosity [mPa·s]
298.15 K	1103	0.543
328.15 K	1008	0.369

CCCCCCCCn1cc[n+](C)c1.[Cl-] + CCCO
Details	speed of sound, 298.15 K [m/s]	speed of sound, 313.15 K [m/s]	speed of sound, 328.15 K [m/s]	viscosity, 298.15 K [mPa·s]	viscosity, 313.15 K [mPa·s]	viscosity, 328.15 K [mPa·s]
x2 = 0	–	1624	–	–	4100	–
x2 = 0.1071	1659	1584	–	7200	1720	–
x2 = 0.2407	1593	1539	–	2056	650	–
x2 = 0.3036	1566	1517	–	910	334	–
x2 = 0.407	1531	–	1445	386	–	77.4
x2 = 0.4887	1504	1461	1421	179	84.1	42.7
x2 = 0.6209	1456	1414	–	50.81	28.81	–
x2 = 0.7248	–	1369	–	–	12.22	–
x2 = 0.8516	1342	1296	1250	6.34	4.4	3.189
x2 = 0.9024	–	1257	1211	–	3.23	2.352
x2 = 0.94	1271	1223	–	3.238	2.293	–
x2 = 0.9729	1238	1188	–	2.648	1.878	–

CCCCCCCCn1cc[n+](C)c1.[Cl-] + CCO
Details	speed of sound, 298.15 K [m/s]	speed of sound, 313.15 K [m/s]	speed of sound, 328.15 K [m/s]	viscosity, 298.15 K [mPa·s]	viscosity, 313.15 K [mPa·s]	viscosity, 328.15 K [mPa·s]
x2 = 0	1721	1624	1560	21000	4100	1091
x2 = 0.0449	–	1606	–	–	2717	–
x2 = 0.1305	–	1578	1527	–	1411	481
x2 = 0.2969	1579	1530	1487	1127	394	165
x2 = 0.4753	1518	1477	1438	186	88	45.2
x2 = 0.6858	1437	–	–	21.26	–	–
x2 = 0.8809	1304	1258	–	3.5	2.601	–
x2 = 0.917	1264	1218	1175	2.551	1.919	1.488
x2 = 0.955	1215	1169	1122	1.754	1.341	1.038
x2 = 0.9794	1179	–	–	1.396	–	–

CCCCCCCCn1cc[n+](C)c1.[Cl-] + CO
Details	speed of sound, 298.15 K [m/s]	speed of sound, 313.15 K [m/s]	speed of sound, 328.15 K [m/s]	viscosity, 298.15 K [mPa·s]	viscosity, 313.15 K [mPa·s]	viscosity, 328.15 K [mPa·s]
x1 = 0.0197	–	1110	1070	–	0.594	0.497
x2 = 0	1721	1624	1560	21000	4100	1091
x2 = 0.0565	1683	1602	1548	10400	2450	760
x2 = 0.1686	1638	1578	1531	3500	1002	365
x2 = 0.2638	1608	1558	1514	1489	500	205
x2 = 0.3525	–	1536	1496	–	212	99
x2 = 0.4395	–	1518	–	–	106.7	–
x2 = 0.5589	–	–	1447	–	–	21.44
x2 = 0.7536	1447	1406	1365	8.43	5.82	4.39
x2 = 0.8231	1397	–	–	4.19	–	–
x2 = 0.8713	–	1304	1263	–	1.854	1.491
x2 = 0.8813	–	1292	1250	–	1.722	1.388
x2 = 0.9236	1274	1229	1186	1.416	1.133	0.93
x2 = 0.9436	1237	1192	1147	1.135	0.914	0.754
